Entries after “also recorded” stand apart in the source; their conditions may differ.
Assays:
Bcl-XL [1] = target: T1, Bcl-XL (Homo sapiens, UniProt Q07817); assay: Isothermal Titration Calorimetry assay (ITC); format: binding; settings: Kd ratio versus 12-14
[2] = In vitro rat plasma stability; format: in vitro ADME
Text: (§1) Next, we examined the pharmacological properties of the isomers as chirality could greatly affect such properties due to stereoselective metabolism. To test the pharmacological properties of diastereoisomers 11-14, we determined their in vitro rat plasma stability, rat microsomal stability, and cell membrane permeability (Table 4).

[3] = rat, 40 min
Text: as §1

[4] = Cell membrane permeability (PAMPA, LogPe); format: in vitro ADME; settings: compared to 12-14
Text: as §1

[5] = tested on: wild type mouse embryonic fibroblast cells (MEF/WT); assay: Apoptosis, FITC-Annexin V/PI assay, MEF/WT; format: cell-based; settings: 30 μM
Protocol: (§2) Wild-type MEF and DKO/MEF were seeded in 24-well plate at a seeding density of half a million per well (in 1 ml of DMEM medium supplemented by 10% FCS). Next day, compound was added to wild-type and DKO cells at final concentration of 0, 2.5, 5.0, 7.5, 10 and 30 μM. On the following day, floating cells were pooled with adherent cells harvested after brief incubation with 0.25% Trypsin/EDTA solution (Gibco/In-Vitrogen Inc.). Cells were centrifuged and supernatant was discarded, and cell pellet was re-suspended with 0.2 ml of Annexin-V binding buffer, followed by addition of 1 μl Annexin-FITC and 1 μl PI (propidium iodide). The percentage of viable cells was determined by a 3-color FACSort instrument and data analyzed by Flow-Jo program, scoring Annexin V-negative, PI-negative as viable cells.

[6] = tested on: Bax/Bak double knockout MEF cells (MEF/DKO); assay: Apoptosis, FITC-Annexin V/PI assay, MEF/DKO; format: cell-based, mouse; settings: for toxicity in MEF/DKO cells: 30 μM, FITC-Annexin V/PI
Protocol: as §2, with “Next day, compound was added to wild-type and DKO cells at final concentration of 0, 2.5, 5.0, 7.5, 10 and 30 μM.” left out

[7] = tested on: Bcl-2 transgenic mice (B6Bcl2); assay: Bcl-2 transgenic mice, spleen weight; format: in vivo, mouse; settings: for in vivo activity in Bcl-2 transgenic mice: single i.p. 42 mg/kg
Protocol: Transgenic mice expressing Bcl-2 have been described as the B6 line.^48 The BCL-2 transgene represents a minigene version of a t(14;18) translocation in which the human BCL-2 gene is fused with the immunoglobulin heavy-chain (IgH) locus and associated IgH enhancer. The transgene was propagated on the Balb/c background.
After 24 hours, B6Bcl2 mice were sacrificed by intraperitoneal injection of lethal dose of Avertin. Spleen was removed and weighed.

M2182 cells = assay: Prostate cancer xenograft in athymic nude mice; format: in vivo, mouse; settings: for inhibitory effect of tumor size compared with the control group: all doses, i.p. every 2 days
Protocol: Cells were then selected for 2 weeks in 200 μg/ml of hygromycin, and individual colonies were isolated, expanded, and maintained in 5 μg/m1 hygromycin. The overexpression of luciferase in these clones was confirmed by measuring luciferase activity.
M2182-Luc cells (1×10^6) were injected s.c. in 100 μL of PBS in the left and right flanks of male athymic nude mice (NCR^nu/nu, 4 weeks old, 20 g body weight) as described previously.^40 After establishing visible tumors of ˜75-mm^3, requiring ˜5-6 days, compound dissolved in 500 μL of solvent (ethanol/Cremophor EL/saline=10:10:80) were injected intraperitoneally (i.p.). The injections were given every 2 days for a total of nine injections. […] A minimum of five animals was used per experimental condition. For in vivo imaging of tumors, the mice were anesthetized and injected i.p. with 150 mg/kg luciferin and light emitted from each tumor was determined using a Xenogen system with CCD camera with an integration time of 1 min. Luminescence measurements were made using Living Image software (version 2.50.1; Xenogen). At the end of the experiment, the animals were sacrificed, and the tumors were removed and photographed.

Bcl-XL [8] = target: T1, Bcl-XL; assay: NMR binding assays (1D 1H-NMR, 2D [15N,1H]-TROSY), Bcl-XL; settings: 2D TROSY at ligand/protein ratio 1:1
Mcl-1 = Mcl-1 (Homo sapiens, UniProt Q07820); assay: 2D [15N,1H]-TROSY NMR binding, Mcl-1; settings: 2D TROSY, ligand/protein ratio of 2:1
[9] = Chemical stability at different temperatures; format: physicochemical; settings: compared to 12-14
H460 cells = assay: Cell viability, ATP-LITE assay, H460; format: cell-based, human; settings: 72 hours of treatment
Protocol: The activity of the compounds against human cancer cell lines (PC3, H460, H1299) were assessed by using the ATP-LITE assay (PerkinElmer). All cells were seeded in either […] or RPMI1640 medium with 5 mM L-glutamine supplemented with 5% fetal bovine serum (Mediatech Inc.), penicillin and streptomycin (Omega). For maintenance, cells were cultured in 5% FBS. Cells plated into 96 well plates at varying initial densities depending on doubling time. […] Compounds were diluted to final concentrations with 0.1% DMSO. Prior to dispensing compounds onto cells, fresh 5% media was placed into wells. Administration of compounds occurred 24 hours after seeding into the fresh media. Cell viability was evaluated using ATP-LITE reagent (PerkinElmer) after 72 hours of treatment. Data were normalized to the DMSO control-treated cells using Prism version 5.01 (Graphpad Software).

[10] = tested on: MDA-MB-231 breast cancer cells; settings: reference 13; read-out: EC50 in killing MDA-MB-231 breast cancer cells; cited from earlier work
BP3 cell line = assay: Apoptosis, Annexin V-FITC and propidium iodide assay, BP3; format: cell-based, human
Protocol: The apoptotic activity of the compounds against BP3 cells was assessed by staining with Annexin V- and propidium iodide (PI). BP3 cell line was cultured in RPMI 1640 medium (Mediatech Inc., Herndon, Va. 20171) containing 10% fetal bovine serum (Mediatech Inc., Herndon, Va. 20171) and Penicillin/Streptomycin (Mediatech Inc., Herndon, Va. 20171). […] The percentage of viable cells was determined by FITC-Annexin V- and propidium iodide (PI)-labeling, using an Apoptosis Detection kit (BioVision Inc.), and analyzing stained cells by flow cytometry (FACSort; Bectin-Dickinson, Inc.; Mountain View, Calif.). Cells that were annexin-V-negative and PI-negative were considered viable.

[11] = tested on: cancer cells that overexpress Mcl-1; settings: references 32, 36; cited from earlier work

T1 sequence (Q07817 whole entry): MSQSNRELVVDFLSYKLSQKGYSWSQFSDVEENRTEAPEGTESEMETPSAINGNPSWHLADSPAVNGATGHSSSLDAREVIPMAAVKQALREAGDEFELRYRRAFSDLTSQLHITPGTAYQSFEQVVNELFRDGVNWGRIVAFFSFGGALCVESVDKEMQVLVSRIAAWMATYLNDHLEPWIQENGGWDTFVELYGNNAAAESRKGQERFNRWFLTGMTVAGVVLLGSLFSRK
Sequence of Mcl-1 (Q07820 whole entry): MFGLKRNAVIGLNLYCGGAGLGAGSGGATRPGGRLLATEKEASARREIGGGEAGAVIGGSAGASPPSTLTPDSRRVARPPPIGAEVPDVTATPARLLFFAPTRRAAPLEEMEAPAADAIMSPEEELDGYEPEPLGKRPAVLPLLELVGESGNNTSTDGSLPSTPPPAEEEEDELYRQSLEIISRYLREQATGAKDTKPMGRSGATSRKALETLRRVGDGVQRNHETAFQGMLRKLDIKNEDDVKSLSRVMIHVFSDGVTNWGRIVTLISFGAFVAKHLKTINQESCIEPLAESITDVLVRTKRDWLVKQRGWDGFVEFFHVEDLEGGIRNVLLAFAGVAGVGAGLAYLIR

Cc1cc2c(C(=O)NC[C@@H](C)c3ccccc3)c(O)c(O)cc2c(O)c1-c1c(C)cc2c(C(=O)NC[C@H](C)c3ccccc3)c(O)c(O)cc2c1O (atropisomer, axis not shown) [Compound 11]
times more potent than other isomers 12-14 in ITC assay (Bcl-XL [1]): 4-20 times
Plasma stability (T = 1 h) [2]: 41%
microsomal stability [3]: relatively good microsomal stability
cell membrane permeability [4]: superior cell membrane permeability
wild type MEF cells killed [5]: ~70%
cytotoxicity against bax−/−bak−/− cells (summary statement) [6]: less cytotoxicity; also recorded: little cytotoxicity
toxicity in MEF/DKO cells [6]: slight toxicity
in vivo activity in Bcl-2 transgenic mice [7]: superior in vivo activity
spleen weight reduction ([7]; single i.p. injection at 42 mg/kg, 24 hours): more than 30%
tumor growth inhibited to % of the tumor volume in the control group (M2182 cells; 3 mg/kg i.p. every 2 days, nine injections): ~60%
inhibition of tumor growth in both flanks (M2182 cells; 5 mg/kg i.p. every 2 days, nine injections): near complete inhibition of tumor growth
inhibitory effect of tumor size compared with the control group (M2182 cells): marked inhibitory effect of tumor size
NMR binding to Bcl-XL (Bcl-XL [8]): larger chemical shift perturbations; also recorded: low to submicromolar binding affinity
NMR binding to Mcl-1 (Mcl-1): significant binding
chemical stability [9]: better chemical stability

Cc1cc2c(C(=O)NCC(C)c3ccccc3)c(O)c(O)cc2c(O)c1-c1c(C)cc2c(C(=O)NCC(C)c3ccccc3)c(O)c(O)cc2c1O (racemic) [Compound 4]
cytotoxicity in MEF/DKO cells compared to isomer 11 ([6]; 3-30 μM): higher cytotoxicity in MEF/DKO cells
inhibitory effect of tumor size (M2182 cells; 10 mg/kg i.p. every 2 days, nine injections): weak inhibitory effect of tumor size
inhibition of tumor growth in both flanks (M2182 cells; 25 mg/kg i.p. every 2 days, nine injections): near complete inhibition of tumor growth
inhibitory effect of tumor size compared with the control group (M2182 cells): marked inhibitory effect of tumor size

Cc1cc2c(C(=O)NCC(C)c3ccccc3)c(O)c(O)cc2c(O)c1-c1c(C)cc2c(C(=O)NCC(C)c3ccccc3)c(O)c(O)cc2c1O (single isomer, unassigned) [Compound 12]
Plasma stability (T = 1 h) [2]: 28%
plasma stability ([2]; compared to other diastereoisomers): decreased plasma and microsomal stability
microsomal stability [3]: decreased plasma and microsomal stability
in vivo activity in Bcl-2 transgenic mice [7]: weak in vivo activity

Cc1cc2c(C(=O)NCC(C)c3ccccc3)c(O)c(O)cc2c(O)c1-c1c(C)cc2c(C(=O)NCC(C)c3ccccc3)c(O)c(O)cc2c1O (single isomer, unassigned) [Compound 13]
Plasma stability (T = 1 h) [2]: 42%

Cc1cc2c(C(=O)NCC(C)c3ccccc3)c(O)c(O)cc2c(O)c1-c1c(C)cc2c(C(=O)NCC(C)c3ccccc3)c(O)c(O)cc2c1O (single isomer, unassigned) [Compound 14]
EC50 (H460 cells): 800 ± 90 nM
Plasma stability (T = 1 h) [2]: 41%
toxicity in MEF/DKO cells [6]: almost equally effective in killing both MEF/WT and MEF/DKO

Cc1cc2c(C(C)C)c(O)c(O)c(C=O)c2c(O)c1-c1c(C)cc2c(C(C)C)c(O)c(O)c(C=O)c2c1O [(+) 1]
EC50 [10]: ~10 µM

CN(C)CC[C@H](CSc1ccccc1)Nc1ccc(S(=O)(=O)NC(=O)c2ccc(N3CCN(Cc4ccccc4-c4ccc(Cl)cc4)CC3)cc2)cc1[N+](=O)[O-] [ABT-737]
apoptosis induction / cytotoxic activity against BP3 cell line (BP3 cell line): no cytotoxic activity
effectiveness against cancer cells that overexpress Mcl-1 [11]: not effective

Source: patent US8487131B2 (Sanford-Burnham Medical Research Institute, priority 2009, dated 2013)
